Tests used:
[1] = Use as solubilizer for substances of low solubility in water
[2] = Behaviour in water (solubility, gel formation, suitability for intravenous administration); assay type: physicochemical

**Q.** Which “suitability as solubilizer for substances of low solubility in water” value (from here on “suitability as solubilizer”) [1] does the source give for CCCCCCCC/C=C\CCCCCCCCCCCC(=O)OC[C@@H](O)COP(=O)([O-])OCCC[N+](C)(C)C [Example 139, 1-Erucoyl-sn-glycero-3-phospho-N,N,N-trimethyl-propylammonium] here?
**A.** proved useful

**Q.** For CCCCCCCC/C=C\CCCCCCCCCCCCOP(=O)([O-])OCC[N+](C)(C)C [Erucylphosphocholine], which “gel formation in water” value [2] is on record?
**A.** forms gel-like structures in water

**Q.** For CCCCCCCC/C=C\CCCCCCCC(=O)OC[C@H](COP(=O)([O-])OCCC[N+](C)(C)C)OC(=O)CCCCCCC/C=C\CCCCCCCC [Example 85, 1,2-Dioleoyl-sn-glycero-3-phospho-N,N,N-trimethyl-propylammonium], which “suitability as solubilizer” value [1] is on record?
**A.** proved useful

**Q.** Which “suitability as solubilizer” value [1] does the source give for “1,2-Dioleoyl-sn-glycero-3-phospho-N,N-dimethyl-N-dihydroxypropyl-ethylammonium [Example 14]” here?
**A.** proved useful
